{
  "source": "patent US8920373B2",
  "about": "“Reduced volume formulation of glatiramer acetate and methods of administration” (Teva Pharmaceutical Industries, Ltd., priority 2009, dated 2014)",
  "origin": "cited, not measured here",
  "system": "RRMS subjects",
  "data": [
    {"substance": "glatiramer acetate", "values": [
      {"measurement": "Patients reporting Immediate Post-Injection Reaction (IPIR)", "setting": "human, in vivo", "result": 31, "unit": "%"},
      {"measurement": "Proportion of patients reporting injection-site reactions at least once", "setting": "human, in vivo", "result": 70, "unit": "%"},
      {"measurement": "Reduction of relapse rate versus placebo", "setting": "largest controlled study", "result": 32, "unit": "%"},
      {"measurement": "Relapse rate", "setting": "largest controlled study", "result": 1.34},
      {"measurement": "Median cumulative number of Gd-enhancing lesions", "setting": "over 9 months of treatment", "result": 11, "unit": "lesions"}
    ]}
  ]
}
